The values below come from ChEMBL document CHEMBL1131036, “Structure-based design, synthesis, and biological evaluation of irreversible human rhinovirus 3C protease inhibitors. 1. Michael acceptor structure-activity studies” (J Med Chem, 1998).

In general, pEC50 refers to the negative decadic logarithm of the EC50, by convention in mol/L. Low values mean a high EC50, high ones a low EC50. The term half-life denotes the time in which the quantity being followed falls by half. The CC50 is the concentration that lowers cell viability or growth by half. A lower CC50 goes with harm at low concentration.

Data set [1] has as its system HeLa. Briefly: Formazan production in HRV-14 virus infected cells. It counts as functional, cell-based. The following applies: Homo sapiens.
Data set [2] has as its target T1, Human rhinovirus A protease (Human rhinovirus sp.) (UniProt Q4U254).
T1 sequence (whole entry): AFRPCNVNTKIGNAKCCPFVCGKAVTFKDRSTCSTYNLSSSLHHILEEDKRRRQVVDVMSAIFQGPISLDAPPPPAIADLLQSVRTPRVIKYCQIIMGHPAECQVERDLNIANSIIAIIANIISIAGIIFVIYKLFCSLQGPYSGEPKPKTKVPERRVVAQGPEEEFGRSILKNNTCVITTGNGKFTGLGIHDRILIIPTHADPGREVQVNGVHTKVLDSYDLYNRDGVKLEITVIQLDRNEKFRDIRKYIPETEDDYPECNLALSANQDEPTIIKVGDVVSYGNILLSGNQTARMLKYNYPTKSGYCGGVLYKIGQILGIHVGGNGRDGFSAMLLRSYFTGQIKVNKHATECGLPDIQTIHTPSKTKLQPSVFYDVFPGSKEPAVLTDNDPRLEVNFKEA
The experiment in a line: Catalytic rate constant (Kobs/[I]) evaluated against human rhinovirus (HRV) serotype 14 3C Protease (3CP). Particulars: Human rhinovirus B (HRV-14).

Data set [3] in a line: Half-life in rat plasma. It counts as ADME, organism-based.
Data set [4] deals with HeLa. The experiment in a line: Concentration of compound that decreased the percentage of formazan production in treated HRV-14 virus infected cells to that produced in uninfected cells. Particulars: Homo sapiens. It counts as functional.
Data set [5] concerns Human rhinovirus sp. Briefly: Inhibitory activity of compound towards partial or complete loss of 3C protease (HRV-14) activity in presence of 5 mM dithiothreitol (DTT); No inhibition. It counts as functional, organism-based.
Data set [6] concerns Human rhinovirus sp. The experiment in a line: Inhibitory activity of compound towards partial or complete loss of 3C protease (HRV-14) activity in presence of 5 mM dithiothreitol (DTT); inhibition observed. It counts as functional, organism-based.
Data set [7] deals with T1, Human rhinovirus A protease (Human rhinovirus sp.). Briefly: Catalytic rate constant (Kobs/[I]) was evaluated against human rhinovirus (HRV) serotype 2 3C Protease (3CP).
Data set [8] shares this target. The experiment in a line: Catalytic rate constant (Kobs/[I]) was evaluated against human rhinovirus (HRV) serotype 16 3C Protease (3CP).
In data set [9] the test system is HeLa. Briefly: Concentration of compound that increased the percentage of formazan production in HRV-16 virus infected cells to that of untreated control cells. Particulars: Homo sapiens. In kind it is functional, cell-based.
In data set [10] the test system is HeLa. The experiment in a line: Concentration of compound that increased the percentage of formazan production in HRV-2 virus infected cells to that of untreated control cells. It counts as functional, cell-based. The following applies: Homo sapiens.

pEC50: −log10 of the molar value. Calls of active or inactive are those of the source. The calls are words filed in the database; no cut-off is given here.

Regarding `CC(C)C[C@H](NC(=O)OCc1ccccc1)C(=O)N[C@@H](Cc1ccccc1)C(=O)N[C@H](/C=C/C(=O)OC1CCCCC1)CCC(N)=O`, in data set [1], the negative logarithm of the EC50 (pEC50) was 5.44. Besides, in data set [2], the K obs / 1 was found to be 3700 M⁻¹ s⁻¹. Besides, the half-life in data set [3] is 4 min. This molecule also registered a cytotoxic concentration (CC50) in data set [4] greater than 320 µM.
Molecule `CC(C)C[C@H](NC(=O)OCc1ccccc1)C(=O)N[C@@H](Cc1ccccc1)C(=O)N[C@H](/C=C/C(=O)N1CCc2ccc([N+](=O)[O-])cc21)CCC(N)=O` gave a pEC50 in data set [1] of less than 3.49. In data set [2], this molecule had a K obs / 1 of 29000 M⁻¹ s⁻¹. In addition, the inhibition entry in data set [5] was “inactive”. This molecule yielded a CC50 in data set [4] greater than 320 µM.
Molecule `CC(C)C[C@H](NC(=O)OCc1ccccc1)C(=O)N[C@@H](Cc1ccccc1)C(=O)N[C@H](/C=C/C(=O)N1CCCC1=O)CCC(N)=O` had a pEC50 in data set [1] of 6.05. The same molecule registered a K obs / 1 in [2] of 126000 M⁻¹ s⁻¹. In data set [6], the inhibition entry is “Yes”. Moreover, the CC50 in data set [4] is greater than 320 µM.
Regarding `CC(=O)/C=C/[C@H](CCC(N)=O)NC(=O)[C@H](Cc1ccccc1)NC(=O)[C@H](CC(C)C)NC(=O)OCc1ccccc1`, the K obs / 1 in data set [7] is 2700 M⁻¹ s⁻¹; in data set [8], 8900 M⁻¹ s⁻¹; in [2], 54000 M⁻¹ s⁻¹. For the same molecule, in data set [1], the pEC50 was 5.70. The same molecule yielded a CC50 in [4] of 60 µM.
On to `CC(C)C[C@H](NC(=O)OCc1ccccc1)C(=O)N[C@@H](Cc1ccccc1)C(=O)N[C@H](/C=C/C(=O)N1CCOC1=O)CCC(N)=O`, for which, in data set [1], the pEC50 was 5.80. Further, the K obs / 1 in [2] worked out at 600000 M⁻¹ s⁻¹. In addition, in data set [6], the inhibition result was “Yes”. This molecule returned a CC50 in data set [4] greater than 100 µM.
`CC(C)C[C@H](NC(=O)OCc1ccccc1)C(=O)N[C@@H](Cc1ccccc1)C(=O)N[C@H](/C=C/C(=O)N1CCc2cc([N+](=O)[O-])ccc21)CCC(N)=O` gave a negative-log EC50 (pEC50) in data set [1] of 4.77. Also, the K obs / 1 in data set [2] was 12000 M⁻¹ s⁻¹. The inhibition entry in data set [5] is “inactive”. In data set [4], this molecule had a CC50 greater than 320 µM.
As for `CC(C)C[C@H](NC(=O)OCc1ccccc1)C(=O)N[C@@H](Cc1ccccc1)C(=O)N[C@H](/C=C1\CCOC1=O)CCC(N)=O`, the negative-log EC50 (pEC50) in data set [1] was 5.28. This molecule also had a K obs / 1 in [2] of 10900 M⁻¹ s⁻¹. Moreover, in data set [3], the half-life is greater than 240 min. This molecule also gave a CC50 in [4] greater than 320 µM.
For the molecule `CCOC(=O)/C=C/[C@H](CCC(N)=O)NC(=O)[C@H](Cc1ccccc1)NC(=O)[C@H](CC(C)C)NC(=O)OCc1ccccc1`, the pEC50 in data set [1] is 6.27; in data set [9] it was 5.64; in data set [10], 5.80. In data set [3], this molecule came in with a half-life of 10 min. The molecule also registered a CC50 in data set [4] greater than 320 µM.
With `CC(C)C[C@H](NC(=O)OCc1ccccc1)C(=O)N[C@@H](Cc1ccccc1)C(=O)N[C@H](/C=C/[N+](=O)[O-])CCC(N)=O`, in data set [1], the pEC50 was less than 4.00. This molecule also registered a K obs / 1 in [2] of 500000 M⁻¹ s⁻¹. Also, the inhibition entry in data set [6] was “Yes”. Further, the CC50 in [4] was found to be 100 µM.
For `CC(C)C[C@H](NC(=O)OCc1ccccc1)C(=O)N[C@@H](Cc1ccccc1)C(=O)N[C@H](/C=C/C(=O)C(C)(C)C)CCC(N)=O`, the negative-log EC50 (pEC50) in data set [1] is 5.77. This molecule came in with a K obs / 1 in data set [2] of 15000 M⁻¹ s⁻¹. In data set [4], this molecule displayed a 50% cytotoxic concentration (CC50) of 5.6 µM.
As for `CC(=O)N1CC/C(=C\[C@H](CCC(N)=O)NC(=O)[C@H](Cc2ccccc2)NC(=O)[C@H](CC(C)C)NC(=O)OCc2ccccc2)C1=O`, the K obs / 1 in data set [7] is 13000 M⁻¹ s⁻¹; in [8], 39000 M⁻¹ s⁻¹; in data set [2], 156000 M⁻¹ s⁻¹. Moreover, the pEC50 in data set [1] is 6.15. In data set [4], the CC50 is greater than 100 µM.
`CC(C)C[C@H](NC(=O)OCc1ccccc1)C(=O)N[C@@H](Cc1ccccc1)C(=O)N[C@H](/C=C/C(=O)N1CCc2ccc(S(=O)(=O)N(C)C)cc21)CCC(N)=O` had a pEC50 in data set [1] of less than 4.00. In data set [2], this molecule returned a K obs / 1 of 28300 M⁻¹ s⁻¹. The inhibition entry in [5] is “inactive”.
With `CCOC(=O)/C(C)=C/[C@H](CCC(N)=O)NC(=O)[C@H](Cc1ccccc1)NC(=O)[C@H](CC(C)C)NC(=O)OCc1ccccc1`, in [1], the pEC50 is 5.52. In [2], the K obs / 1 is 7300 M⁻¹ s⁻¹. Also, the half-life in [3] was 20 min. Moreover, in data set [4], the CC50 is greater than 320 µM.
For `CC(C)C[C@H](NC(=O)OCc1ccccc1)C(=O)N[C@@H](Cc1ccccc1)C(=O)N[C@H](/C=C/C(=O)N1CCc2ccccc21)CCC(N)=O` the same measures were 4.80, 6500 M⁻¹ s⁻¹, greater than 80 min and greater than 320 µM.
With `COC(=O)/C=C\[C@H](CCC(N)=O)NC(=O)[C@H](Cc1ccccc1)NC(=O)[C@H](CC(C)C)NC(=O)OCc1ccccc1`, in data set [1], the pEC50 was 5.49. In data set [2], the K obs / 1 is 2400 M⁻¹ s⁻¹. Moreover, in [4], the half-maximal cytotoxic concentration (CC50) was greater than 320 µM.
In data set [1], `CCN(CC)c1ccc(C(=O)/C=C/[C@H](CCC(N)=O)NC(=O)[C@H](Cc2ccccc2)NC(=O)[C@H](CC(C)C)NC(=O)OCc2ccccc2)cc1` had a pEC50 of less than 4.60. The K obs / 1 in [2] was 4500 M⁻¹ s⁻¹. The cytotoxic concentration (CC50) in data set [4] amounted to 25 µM.
For `CC(C)C[C@H](NC(=O)OCc1ccccc1)C(=O)N[C@@H](Cc1ccccc1)C(=O)N[C@H](/C=C/C(=O)Nc1ccccc1)CCC(N)=O` the same measures were less than 3.49, 200 M⁻¹ s⁻¹ and greater than 320 µM.
For `CC(C)C[C@H](NC(=O)OCc1ccccc1)C(=O)N[C@@H](Cc1ccccc1)C(=O)N[C@H](/C=C/C(=O)OC1CCCC1)CCC(N)=O` the same measures were 6.25, 14600 M⁻¹ s⁻¹ and greater than 100 µM.
As to `CON(C)C(=O)/C=C/[C@H](CCC(N)=O)NC(=O)[C@H](Cc1ccccc1)NC(=O)[C@H](CC(C)C)NC(=O)OCc1ccccc1`, the pEC50 in data set [1] was 5.40. Further, the K obs / 1 in data set [2] worked out at 5900 M⁻¹ s⁻¹. This molecule also gave a half-life in data set [3] of 12 min. In addition, in [4], the CC50 is greater than 100 µM.
In data set [1], `CC(C)C[C@H](NC(=O)OCc1ccccc1)C(=O)N[C@@H](Cc1ccccc1)C(=O)N[C@H](/C=C/C(=O)c1ccco1)CCC(N)=O` had a negative logarithm of the EC50 (pEC50) of 5.62. Further, the K obs / 1 in data set [2] was 460000 M⁻¹ s⁻¹. Also, the inhibition result in data set [6] was “Yes”. The molecule also gave a CC50 in [4] of 19 µM.
For the molecule `COC(=O)N1CC/C(=C\[C@H](CCC(N)=O)NC(=O)[C@H](Cc2ccccc2)NC(=O)[C@H](CC(C)C)NC(=O)OCc2ccccc2)C1=O`, the pEC50 in data set [1] is 4.55. For the same molecule, in [2], the K obs / 1 was 8400 M⁻¹ s⁻¹. For the same molecule, the cytotoxic concentration (CC50) in data set [4] is greater than 100 µM.
The corresponding values for `CC(C)C[C@H](NC(=O)OCc1ccccc1)C(=O)N[C@@H](Cc1ccccc1)C(=O)N[C@H](/C=C/C(=O)c1ccc([N+](=O)[O-])cc1)CCC(N)=O` are 4.49, 310000 M⁻¹ s⁻¹ and 32 µM.
With `COc1ccc(C(=O)/C=C/[C@H](CCC(N)=O)NC(=O)[C@H](Cc2ccccc2)NC(=O)[C@H](CC(C)C)NC(=O)OCc2ccccc2)cc1`, the pEC50 in data set [1] is 4.66. Further, the K obs / 1 in data set [2] was 150000 M⁻¹ s⁻¹. Moreover, the CC50 in [4] was determined as 100 µM.
On to `CC(C)C[C@H](NC(=O)OCc1ccccc1)C(=O)N[C@@H](Cc1ccccc1)C(=O)N[C@H](/C=C/C(=O)N1CCCC1)CCC(N)=O`, for which the pEC50 in data set [1] is 4.66. The molecule further displayed a K obs / 1 in data set [2] of 2100 M⁻¹ s⁻¹. The CC50 in data set [4] is greater than 100 µM.
For the molecule `CC(C)C[C@H](NC(=O)OCc1ccccc1)C(=O)N[C@@H](Cc1ccccc1)C(=O)N[C@H](/C=C/C(=O)N1CCN(C)C1=O)CCC(N)=O`, the pEC50 in data set [1] was 5.30. The K obs / 1 in data set [2] came out at 312000 M⁻¹ s⁻¹. The inhibition entry in data set [6] was “Yes”. In addition, the cytotoxic concentration (CC50) in data set [4] is greater than 320 µM.
